What was measured:
papillary muscle = experiment: isolated guinea pig atria and papillary muscle procedure: papillary muscle force; assay type: cell-based; conditions: Cavia porcellus, papillary muscle force, read-out: % Change from Control PMF
Description: (§1) Detailed descriptions of these test procedures appear in U.S. Patent No. 4,072,746, issued February 7, […].
(§2) Cardiotonic activity in said isolated cat or guinea pig atria and papillary muscle procedure, is indicated by a significant increase, that is, greater than 25% (cat) or 30% (g.pig) in papillary muscle force and a significant increase, that is, greater than 25% (cat) or 30% (g.pig) in right atrial force, with a lower percentage increase (about one-half or less than the percentage increase in right atrial force or papillary muscle force) in right atrial rate. Because of the lower control active tensions of guinea pig tissues, the percent change from control values of both rate and force responses is elevated slightly, i.e., 5%. Thus, whereas cardiotonic activity is ascertained with a papillary muscle force or right atrial force increase of 26% and greater in the cat test, corresponding activity in the guinea pig test is designated with a papillary muscle force (PMr) or right atrial force (RAF) increase of 31% or greater. Representative examples of the compounds of Formulas I and II were tested by said guinea pig atria and papillary muscle procedure with the following results: […]

guinea pig atria = experiment: isolated guinea pig atria and papillary muscle procedure: right atrial force; assay type: cell-based; conditions: Cavia porcellus, read-out: % Change from Control RAF
Description: as §1, §2

anesthetized dog = anesthetized dog procedure: cardiac contractile force; assay type: in vivo; conditions: administered intravenously
Procedure: as §1
When tested by said anesthetized dog procedure, the said cardiotonically active compounds of formulas I and II at doses of from about 0.030 to 3.0 mg/kg administered intravenously are found to cause significant increases, that is, 25% or greater, in cardiac contractile force or cardiac contractility with lower changes in heart rate and blood pressure. Representative examples of the invention were tested by this procedure and found to cause increases in contractile force as follows: […]

Structure (SMILES) | activation at 3 µg/mL (papillary muscle) [%] | activation at 10 µg/mL (papillary muscle) [%] | activation at 30 µg/mL (papillary muscle) [%] | activation at 3 µg/mL (guinea pig atria) [%] | activation at 10 µg/mL (guinea pig atria) [%] | activation at 30 µg/mL (guinea pig atria) [%] | % Increase In Contractile Force (anesthetized dog; dose 1.00 mg/kg) [%] | % Increase In Contractile Force (anesthetized dog; dose 3.00 mg/kg) [%] | activation at 100 µg/mL (papillary muscle) [%] | activation at 100 µg/mL (guinea pig atria) [%] | activation at 1 µg/mL (papillary muscle) [%] | activation at 1 µg/mL (guinea pig atria) [%] | % Increase In Contractile Force (anesthetized dog; dose 0.100 mg/kg) [%] | activation at 0.3 µg/mL (papillary muscle; dose 0.3 µg/ml) [%] | activation at 0.3 µg/mL (guinea pig atria; dose 0.3 µg/ml) [%] | % Increase In Contractile Force (anesthetized dog; dose 0.030 mg/kg) [%] | % Increase In Contractile Force (anesthetized dog; dose 0.300 mg/kg) [%]
Cc1ccn(-c2nccc3[nH]c(=O)ccc23)n1 [Example 40, 5-(3-Methyl-1H-pyrazol-1-yl)-1,6-naphthyridin-2(lH)-one] | 24 | 64 | 97 | 26 | 89 | 84 |  |  |  |  |  |  |  |  |  |  | 
Cc1ncn(-c2nccc3[nH]c(=O)ccc23)c1C [Example 12, 5-(4,5-dimethyl-1H-imidazol-1-yl)-1,6-naphthyridin-2(1H)-one] | 13 | 49 | 92 | 7 | 14 | 50 | 54 | 136 |  |  |  |  |  |  |  |  | 
O=c1ccc2c(-n3cnc([N+](=O)[O-])c3)nccc2[nH]1 [Example 48, 5-(4-nitro-1H-imidazol-1-yl)-1,6-naphthyridin-2(1H)-one] |  | 37 | 71 |  | 18 | 42 |  |  | 107 | 170 |  |  |  |  |  |  | 
Cc1ncn(-c2nccc3[nH]c(=O)ccc23)n1 [Example 41, 5-(3-methyl-lH-1,2,4-triazole-1-yl)-1,6-naphthyridin-2(1H)-one] | 56 | 124 |  | 37 | 67 |  |  |  |  |  | 36 | 29 |  |  |  |  | 
O=c1ccc2c(Br)nccc2[nH]1 [Example 4, 5-bromo-1,6-naphthyridin-2(1H)-one] | 73 | 85 | 110 | 57 | 49 | 134 |  |  |  |  |  |  | 135 |  |  |  | 
O=c1ccc2c(-n3cnc(Br)c3)nccc2[nH]1 [Example 43, 5-(4-Bromo-1H-imidazol-1-yl)-1,6-naphthyridin-2(lH)-one] | 71 | 128 |  | 43 | 56 |  |  |  |  |  | 47 | 35 |  |  |  |  | 
O=c1ccc2c(-n3cccn3)nccc2[nH]1 [Example 10, 5-(1H-pyrazol-1-yl)-1,6-naphthyridin-2(1H)-one] |  | 43 | 121 |  | 38 | 102 |  |  | 203 | 168 |  |  |  |  |  |  | 
O=c1ccc2c(-n3cnc(CO)c3)nccc2[nH]1 [Example 42, 5-[4-(Hydroxymethyl)-1H-imidazol-1-yl]-1,6-naphthyridin-2(lH)-one] | 48 | 112 |  | 8 | 37 |  |  |  |  |  | 9 | -2 |  |  |  |  | 
Cc1ncc([N+](=O)[O-])n1-c1nccc2[nH]c(=O)ccc12 [Example 9, 5-(2-methyl-5-nitro-1H-imidazol-1-yl)-1,6-naphthyridin-2(1H)-one] |  | 24 | 43 |  | 15 | 16 |  |  | 103 | 116 |  |  |  |  |  |  | 
Cc1cc2[nH]c(=O)ccc2c(Br)n1 [Example 46, 5-Bromo-7-methyl-1,6-naphthyridin-2(1H)-one] | 67 | 114 |  | 92 | 59 |  |  |  |  |  | 44 | 41 |  |  |  |  | 
O=c1ccc2c(-n3cnc(-c4ccccc4)c3)nccc2[nH]1 [Example 13, 5-(4-phenyl-lH-imidazol-1-yl)-1,6-naphthyridin-2(1H)-one] |  | 25 | 34 |  | 33 | 24 | 40 | 87 | 36 | 1 |  |  |  |  |  |  | 
Cc1cn(-c2nccc3[nH]c(=O)ccc23)cn1 [Example 7, 5-(4-Methyl-1H-imidazol-1-yl)-1,6-naphthyridin-2(1H)-one] | 87 |  |  | 88 |  |  |  |  |  |  | 66 | 49 | 96 | 53 | 28 | 34 | 124
Cc1cn(-c2nc(C)cc3[nH]c(=O)ccc23)cn1 [Example 47, 7-Methyl-5-(4-methyl-1H-imidazol-1-yl)-1,6-naphthyridin-2(lH)-one] | 48 | 164 |  | 46 | 158 |  | 183 |  |  |  | 46 | 37 | 71 |  |  |  | 125
O=c1ccc2c(-n3cnc(C(F)(F)F)c3)nccc2[nH]1 [Example 44, 5-[(4-(Trifluoromethyl)-lH-imidazol-1-yl)]-1,6-naphthyridin-2(lH)-one] |  | 30 | 31 |  | 35 | 36 |  |  | 69 | 101 |  |  |  |  |  |  | 
O=c1ccc2c(-n3ccnc3)nccc2[nH]1 [Example 6, 5-(lH-imidazol-1-yl)-1,6-naphthyridin-2(lH)-one] | 55 | 90 | 96 | 70 | 68 | 142 |  |  |  |  |  |  |  |  |  |  | 
Cc1nccn1-c1nccc2[nH]c(=O)ccc12 [Example 8, 5-(2-Methyl-1H-imidazol-1-yl)-1,6-naphthyridin-2(lH)-one] |  | 34 | 69 |  | 39 | 117 |  |  | 100 | 221 |  |  |  |  |  |  | 
O=c1ccc2c(-n3cncn3)nccc2[nH]1 [Example 11, 5-(lH-1,2,4-triazol-1-yl)-1,6-naphthyridin-2(1H)-one] | 51 | 76 | 108 | 28 | 31 | 140 |  |  |  |  |  |  |  |  |  |  | 
